Consider 15 compounds from PubChem BioAssay (NCI).

Test systems include CCRF-CEM leukemia; HOP-62 NSCLC; MALME-3M melanoma; NCI-H460 lung; OVCAR-3 ovarian; OVCAR-4 ovarian; SF-268 CNS; SK-MEL-2 melanoma; MDA-MB-231 breast; PC-3 prostate.
What all share (experiment): NCI anticancer screen, dose series, 48 h

Values joined by “and” are separate entries in the source; they are usually repeats but may differ in a detail not shown here. Equal values may be shown once.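 Where inhibition never reached the appropriate level, the endpoint shown equals the highest concentration tested. Otherwise, values were interpolated linearly from a five-concentration, 48-hour dose response in 96-well plates. At the GI50, growth is halved. TGI is the concentration that stops growth completely.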

In the case of `C=C=C(CC)C(C(=O)OC)N(CC)CC` (stereo unspecified), the TGI in the test with CCRF-CEM leukemia, in the test with HOP-62 NSCLC, in the test on MALME-3M melanoma, in the test with NCI-H460 lung, with OVCAR-3 ovarian and in the test on OVCAR-4 ovarian was above 100 µM throughout. Also, the TGI in the test with SF-268 CNS is above 100 µM.
As for `COCC(=O)CP(=O)(OC)OC`, the TGI in the test with CCRF-CEM leukemia, in the test on HOP-62 NSCLC, in the test with MALME-3M melanoma, with NCI-H460 lung, in the test with OVCAR-3 ovarian and in the test on OVCAR-4 ovarian was above 100 µM throughout. Further, the TGI with SF-268 CNS and in the test with SK-MEL-2 melanoma was above 100 µM in each case.
On to `COc1ccc2c(c1OC)C1=C(C2=O)c2cc3c(cc2CCN1)OCO3`, for which the TGI in the test with CCRF-CEM leukemia is above 100 µM; with HOP-62 NSCLC it was above 100 µM; with MALME-3M melanoma it was above 100 µM; in the test on NCI-H460 lung, 92.7 µM; in the test on OVCAR-3 ovarian it was 90.7 µM; in the test with OVCAR-4 ovarian, above 100 µM. Further, the values for the TGI in the test on SF-268 CNS and in the test with SK-MEL-2 melanoma were above 100 µM and 66.3 µM, respectively.
Take `CC(=O)OC1CC2C(C)(C)C(=O)C=C[C@]2(C)C2CCC3(C)C(c4ccoc4)C(=O)[C@H]4O[C@]43[C@]12C` (stereo partly specified): the TGI with CCRF-CEM leukemia was 62.3 µM; in the test on HOP-62 NSCLC it was 42.7 µM; in the test with MALME-3M melanoma, 32.1 µM; in the test on NCI-H460 lung, 36.8 µM; with OVCAR-4 ovarian, above 100 µM; in the test on SF-268 CNS, above 100 µM. Moreover, in the test with SK-MEL-2 melanoma, the TGI came to 43.4 µM.
Regarding `NC1CCN(c2nc(Nc3cccc(C(F)(F)F)c3)c3c(=O)[nH]ccc3n2)CC1`, the GI50 is 1.26 µM with CCRF-CEM leukemia; 1.76 µM with HOP-62 NSCLC; 1.88 µM with MALME-3M melanoma; 2 µM in the test on MDA-MB-231 breast; 1.26 µM in the test on NCI-H460 lung; 1.53 µM with OVCAR-4 ovarian. Also, the GI50 in the test with PC-3 prostate was 1.78 µM. Also, the TGI with CCRF-CEM leukemia is 6.88 µM; in the test with HOP-62 NSCLC, 3.54 µM; in the test on MALME-3M melanoma, 3.83 µM; in the test on MDA-MB-231 breast it was 3.6 µM; in the test on NCI-H460 lung, 2.8 µM; in the test with OVCAR-4 ovarian, 3.84 µM. Moreover, the TGI with PC-3 prostate worked out at 3.59 µM.
Regarding `Cc1c(C(=O)NCCO)[n+](=O)c2cc(Cl)ccc2n1[O-]`, the TGI in the test on CCRF-CEM leukemia, in the test with HOP-62 NSCLC, with MALME-3M melanoma, in the test with NCI-H460 lung, in the test with OVCAR-3 ovarian and in the test on OVCAR-4 ovarian was above 100 µM throughout. The same compound gave a TGI with SF-268 CNS above 100 µM.
Regarding `CN1NC2(CCCCC2)ON=C1c1ccccc1`, the TGI in the test with CCRF-CEM leukemia, in the test with HOP-62 NSCLC, in the test on MALME-3M melanoma, with NCI-H460 lung, in the test with OVCAR-3 ovarian and with OVCAR-4 ovarian was above 100 µM in each case. In addition, the TGI in the test with SF-268 CNS was above 100 µM.
For the compound `O=c1cc2ccccc2nn1Cc1ccccc1Cl`, the TGI in the test on CCRF-CEM leukemia, in the test on HOP-62 NSCLC, with MALME-3M melanoma, in the test on NCI-H460 lung, in the test with OVCAR-3 ovarian and with OVCAR-4 ovarian was above 100 µM throughout. Further, the TGI in the test on SF-268 CNS and in the test on SK-MEL-2 melanoma was above 100 µM in each case.
On to `Cc1sc(C)c(Cc2c(C)sc(C)c2CCl)c1CCl`, for which the GI50 is above 100 µM with CCRF-CEM leukemia; above 100 µM with HOP-62 NSCLC; 81.4 µM in the test with MALME-3M melanoma; above 100 µM in the test on MDA-MB-231 breast; above 100 µM with NCI-H460 lung; above 100 µM with OVCAR-3 ovarian. Moreover, the GI50 in the test on OVCAR-4 ovarian, with SF-268 CNS and in the test on SK-MEL-2 melanoma was above 100 µM throughout. Also, the TGI with CCRF-CEM leukemia, with HOP-62 NSCLC, with MALME-3M melanoma, in the test with MDA-MB-231 breast, with NCI-H460 lung and in the test on OVCAR-3 ovarian was above 100 µM in each case. For the same compound, the TGI with OVCAR-4 ovarian, in the test with SF-268 CNS and with SK-MEL-2 melanoma was above 100 µM throughout.
For `O=C(O)/C(=C/c1c(O)ccc2ccccc12)c1csc(-c2nc(/C(=C\c3c(O)ccc4ccccc34)C(=O)O)cs2)n1`, the TGI is 31.4 µM in the test on CCRF-CEM leukemia; 22.2 µM in the test with HOP-62 NSCLC; 3.95 µM with MALME-3M melanoma; 49.1 µM with NCI-H460 lung; 31.3 µM in the test with OVCAR-3 ovarian; 26.3 µM in the test on SF-268 CNS. The compound further displayed a TGI with SK-MEL-2 melanoma of 10.2 µM.
Consider `C1CCN(c2nsc(N3CCCCC3)n2)CC1`, for which the TGI with CCRF-CEM leukemia, with HOP-62 NSCLC, in the test with MALME-3M melanoma, with NCI-H460 lung, in the test with OVCAR-4 ovarian and in the test with SF-268 CNS was above 100 µM throughout. In the test on SK-MEL-2 melanoma, this compound yielded a TGI above 100 µM.
In the case of `CO/C1=C\C(C)=C\C(C)C(O)C(C)C/C(C)=C/C=C/C(OC)C(C(C)C(O)C(C)C2(O)CC(O)C(C)C(C(C)C)O2)OC1=O` (stereo unspecified), the TGI in the test with HOP-62 NSCLC was 0.000847 µM; with MALME-3M melanoma, 0.0914 µM and 0.0629 µM; in the test with OVCAR-4 ovarian, 15.6 µM; in the test on SF-268 CNS, 19.5 µM; in the test with SK-MEL-2 melanoma it was 0.0141 µM and 0.0178 µM. For the same compound, the GI50 with MALME-3M melanoma is 0.0237 µM.
Take `CCOC(=O)C1(Cc2ccccc2)CCCCCN1` (stereo unspecified): the TGI in the test with HOP-62 NSCLC, in the test on MALME-3M melanoma, in the test on NCI-H460 lung, with OVCAR-3 ovarian, in the test with OVCAR-4 ovarian and with SF-268 CNS was above 100 µM in each case.
Regarding `CCNC(=O)C#CC(=O)NCC`, the GI50 is above 10 µM with CCRF-CEM leukemia; above 100 µM with MALME-3M melanoma; above 10 µM in the test on NCI-H460 lung; above 10 µM in the test on OVCAR-3 ovarian; above 10 µM in the test on OVCAR-4 ovarian; above 10 µM with SF-268 CNS. Further, in the test on SK-MEL-2 melanoma, the GI50 was above 10 µM. Moreover, the TGI was above 72.3 µM in the test with CCRF-CEM leukemia; above 100 µM in the test with HOP-62 NSCLC; above 100 µM in the test with MALME-3M melanoma; above 100 µM in the test with NCI-H460 lung; above 100 µM with OVCAR-3 ovarian; above 100 µM in the test on OVCAR-4 ovarian. Further, the TGI with SF-268 CNS and in the test with SK-MEL-2 melanoma was above 100 µM in each case.
Consider `CCC(=O)C(C)C1=Nc2nnc(CCCCCCCc3nnc4n3C(=O)C(C(C)C(=O)CC)=N4)n2C1=O` (stereo unspecified), for which the TGI with CCRF-CEM leukemia, in the test with HOP-62 NSCLC, with MALME-3M melanoma, in the test on NCI-H460 lung, in the test with OVCAR-3 ovarian and in the test on SF-268 CNS was above 100 µM throughout.
